The values below come from patent publication US20120040976A1, “SMALL MOLECULE IMMUNOMODULATORS FOR ALZHEIMER'S DISEASE” (HUMAN BIOMOLECULAR RESEARCH INSTITUTE, priority 2008, published 2012).

SMILES strings stand for the structures.

In experiment [1] the test system is TLR2. Description: TLR2 gene expression by qPCR in U-937 human monocytic cells treated with curcumins plus Aβ. Type of experiment: cell-based. Conditions: human monocytic cells (U-937), curcumin plus Aβ. The method, then: Cell culture conditions for monocytic cell lines. Human and mouse monocyte cell lines are grown in RPMI-1640 medium with 10% fetal bovine serum (FBS), plus glutamine and pen/strep. For treatment with compounds (curcuminoids+/−Aβ), replicate sets of 0.5-1.0 mL cultures containing 1-2×10^6 cells are set up in the wells of 48-well tissue culture plates. Both replicate sets have at least one control well receiving no added curcuminoid to provide baseline expression controls for untreated, and Aβ-only treated cells. Remaining wells receive curcuminoid in a range of 10-fold serial dilutions in DMSO, typically from […] Cultures are incubated for 20-24 hours (“overnight”) at 37° C. in atmosphere with 5% CO2. After one overnight, to one of replicate sets of cultures is added Aβ (1-42) peptide to a final concentration of 5 μg/mL.
RNA isolation and cDNA synthesis. After the first overnight incubation in the presence of curcuminoid, cells from one replicate set of wells are collected by centifugation. RNAs are extracted from pelleted cells using miniprep column kits following manufacturer's protocol for animal cells. […] of total cellular RNA from each well is quantitated using a Nanodrop spectrophotometer, and first-strand total cDNA is prepared from 0.3-1.0 μg RNA by random-hexamer priming. Following the second 20 hr. incubation in the presence of Aβ, RNA extractions and cDNA synthesis are similarly performed.
Assay development. Gene-specific mRNA levels are determined using a real-time thermocycler, and by normalizing to expression of one or more control genes. Assays for quantifying mRNA levels are based on gene sequences reported in NCBI Genbank. PCR oligonucleotide primers are selected spanning introns to minimize the opportunity for amplication from any contaminating genomic DNA in the RNA preps. Oligonucleotides are typically tested and used at a concentration of 200 nM in qPCR reactions containing SYBR dye. Control reactions include template from cDNA synthesis reactions either + or − reverse transcriptase (RT), as well as no-template controls (ntc). All reactions are performed in triplicate. Reactions are typically run with 40 cycles of 95° C. (10 sec) and 58° C. (30 sec). Melt curves based on incremental 0.5° C. increases are determined for new assays to test for uniformity of amplified products. Reaction conditions are modified as needed depending on initial test results. ‘Working’ assays are selected based on clear RNA-dependent amplification and absence of product in ‘ntc’ reactions. The following assay primers are used: […]
qPCR reactions of cultured monocyte cDNAs. One μL total cellular cDNA per reaction is used in triplicate reactions for each test gene, and for each culture treatment. SYBR-Green reactions were run on a Continuous Fluorescence real-time thermocycler and analyzed. Cycle threshold (Ct) values are recorded for each replicate reaction, and are then averaged and normalized against mean Ct values from one or more control genes. Fold-expression differences relative to untreated cells are determined using the 2^−ΔΔCt method as previously described. […] Data are also evaluated for each gene with regard to sensitivity, maximally effective concentration of curcuminoid, response to Aβ, and overall magnitude of fold-expression changes. […]
(In general: Quantitative PCR measures a nucleic acid by following its amplification.)

The subject of experiment [2] is MGAT3. As to the kind of experiment: MGAT3 transcription ratio, AD patient / control PBMCs (qPCR). The class given is cell-based, human. Conditions: Aβ stimulation. Put shortly:
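Via qPCR on cultured human monocyte cDNA, curcuminoid-treated versus vehicle, with Aβ stimulation, in AD patient and control cells. SYBR-Green triplicate reactions; Ct averaged, normalised to control genes, fold change by 2^−ΔΔCt. EC50 taken from curcumin concentration-response data.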

Experiment [3] relates to TLR 1. As to the kind of experiment: TLR 1 transcription ratio, AD patient / control PBMCs (qPCR). Type of experiment: cell-based, human. The following applies: Aβ stimulation. As to the method:
(§1) qPCR reactions of cultured monocyte cDNAs. One μL total cellular cDNA per reaction is used in triplicate reactions for each test gene, and for each culture treatment. SYBR-Green reactions were run on a Continuous Fluorescence real-time thermocycler and analyzed. Cycle threshold (Ct) values are recorded for each replicate reaction, and are then averaged and normalized against mean Ct values from one or more control genes. Fold-expression differences relative to untreated cells are determined using the 2^−ΔΔCt method as previously described. Data from the curcumin concentration range are plotted in order to determine EC50 values (concentrations producing one-half maximal stimulant activity), which are used for comparisons of potency between different compounds. Data are also evaluated for each gene with regard to sensitivity, maximally effective concentration of curcuminoid, response to Aβ, and overall magnitude of fold-expression changes.
(§2) MGAT3 and/or TLR transcription were tested by qPCR in human monocyte cells treated with curcuminoids and compared the results to those treated with vehicle (Table 7). As discussed above, activation or up-regulation of macrophage MGAT3 or TLR's results in many functional outcomes, including the enhancement of […] and removal of Aβ, increased apoptosis, secretion of inflammatory cytokines, and other anti-AD antimicrobial activities. […]

Experiment [4] has as its system TLR 5. Description: TLR 5 transcription ratio, AD patient / control PBMCs (qPCR). Type of experiment: cell-based, human. Conditions: Aβ stimulation. The method, then:
as §1, §2

Experiment [5] relates to cortical neurons in hAPP-transfected rat brain slices. Description: Rat brain slice AD model (hAPP-induced neurodegeneration). Conditions: rat brain slices transfected with EYFP and hAPP, three concentrations, 72 hrs (FIG. 8). The class given is cell-based. The source says:
A rodent brain slice model for AD has been developed where the expression of human APP by particle-mediated gene transfer (“biolistics”) leads to typical signs of neuronal dystrophy, and ultimately the degeneration and clearance of the cell body with a few days. Brain slice preparations offer a powerful experimental system because they preserve the three-dimensional tissue architecture and local environment of neurons and glia far better than dissociated cell culture. As such, drug lead candidates that show neuroprotective activity in brain-tissue based disease models have a much increased ability to predict efficacy in vivo and ultimately in the clinic.
Preparation of Brain Slice Explants. Cd Sprague-Dawley Rat Pups are Used at Postnatal day 10. Brains are cut into 250 μm coronal slices on a vibratome in chilled medium baths. Approximately 6 such slices can be cut from each rat brain; each are divided into “hemi-coronal” slices which are placed in individual 6-well transwell inserts. […]
Assessment of cortical neuron health. […] Representative images are captured using a digital camera on a fluorescence microscope. After 3 days, cortical neurons are scored. […] Statistical significance of the neuronal counts in compound-treated slices is evaluated by ANOVA analysis, followed by post hoc Dunnett's analysis at the p≦0.05 confidence level. […]

On to `O=C(/C=C(O)/C=C/c1ccc(O)cc1)/C=C/c1ccc(O)cc1` [Compound 1, 5-Hydroxy-1,7-bis-(4-hydroxy-phenyl)-hepta-1,4,6-trien-3-one, reference compound], for which, in experiment [1], the “Relative gene expression TLR2, increased expression relative to control cells” value is recorded as “+ ((+) <20-fold)”. Further, the “Relative ratio of MGAT3 transcription in AD patient / control PBMC's” value in experiment [2] is “++ ((++) indicates a ratio of 1.5-2.0)”. Moreover, the “Relative ratio of TLR 1 transcription in AD patient / control PBMC's” value in experiment [3] was “TLR 1 ++ ((++) indicates a ratio of 1.5-2.0)”. The “Relative ratio of TLR 5 transcription in AD patient / control PBMC's” value in experiment [4] is “TLR 5 +++ ((+++ to ++++) indicates a ratio of 2.0 and above)”. The “Neuroprotective effect against hAPP-induced neurodegeneration” value in experiment [5] is “dose-dependent trend for AD related neuroprotection”.
